Measurements: PubChem BioAssay (NCI)
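Compound exposure: 48 hours, 5 concentrations, 96-well plates. GI50: concentration for 50% inhibition of growth. TGI marks complete inhibition of growth.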

Assays:
Assay in all cases: inhibition of tumour cell growth, NCI panel, 48 h
A498 renal = system: A498 renal
IGROV1 ovarian = system: IGROV1 ovarian
NCI-H226 lung = system: NCI-H226 lung
SF-268 CNS = system: SF-268 CNS
SNB-19 CNS = system: SNB-19 CNS
SNB-75 CNS = system: SNB-75 CNS
U251 CNS = system: U251 CNS
UO-31 renal = system: UO-31 renal
HCT-15 colon = system: HCT-15 colon

| Compound | TGI (A498 renal) | TGI (IGROV1 ovarian) | TGI (NCI-H226 lung) | TGI (SF-268 CNS) | TGI (SNB-19 CNS) | TGI (SNB-75 CNS) | TGI (U251 CNS) | TGI (UO-31 renal) | TGI (HCT-15 colon) | GI50 (A498 renal) | GI50 (HCT-15 colon) | GI50 (IGROV1 ovarian) | GI50 (NCI-H226 lung) | GI50 (SF-268 CNS) | GI50 (SNB-19 CNS) | GI50 (U251 CNS) | GI50 (UO-31 renal) | GI50 (SNB-75 CNS) |
| --- | --- | --- | --- | --- | --- | --- | --- | --- | --- | --- | --- | --- | --- | --- | --- | --- | --- | --- |
| CCOc1ccccc1NC(=O)C1=C(C)NC(C)=C(C(=O)Nc2ccccc2OCC)C1c1cccc([N+](=O)[O-])c1 | > 100 µM | > 100 µM | > 100 µM | > 100 µM | > 100 µM | 89.3 µM | > 100 µM | > 100 µM | – | – | – | – | – | – | – | – | – | – |
| O=C(N/C(=C\c1ccc(F)cc1)c1nc2ccccc2[nH]1)c1ccccc1 | > 100 µM | > 100 µM | > 100 µM | > 100 µM | > 100 µM | > 100 µM | > 100 µM | > 100 µM | > 100 µM | – | – | – | – | – | – | – | – | – |
| Cc1c(Cl)cccc1NC(=O)C(=O)c1c(O)c2ccc(O)cc2oc1=O | > 100 µM | > 100 µM | > 100 µM | > 100 µM | > 100 µM | > 100 µM | > 100 µM | > 100 µM | > 100 µM | – | – | – | – | – | – | – | – | – |
| CC(CC(=O)Nc1ccc(NC(=O)CC(C)N=NC(N)=O)cc1)N=NC(N)=O (stereo unspecified) | > 100 µM | > 100 µM | > 100 µM | > 100 µM | > 100 µM | > 100 µM | > 100 µM | > 100 µM | 33.6 µM | – | – | – | – | – | – | – | – | – |
| CCN1CCC(O)(/C=C/c2ccccc2)C(C(=O)/C=C/c2ccccc2)C1 (stereo unspecified) | 18.4 µM | 3.78 µM | 9.93 µM | 7.36 µM | 22.3 µM | 19.2 µM | 6.67 µM | 21.7 µM | 3.84 µM | – | – | – | – | – | – | – | – | – |
| C=CCCC(=O)CC(=O)OCc1ccccc1 | > 100 µM | > 100 µM | – | > 100 µM | > 100 µM | > 100 µM | > 100 µM | > 100 µM | > 100 µM | – | – | – | – | – | – | – | – | – |
| C/C(=N\Nc1n[nH]c(=S)n1N)c1c(O)cc(C)oc1=O | > 100 µM | – | > 100 µM | > 100 µM | > 100 µM | > 100 µM | > 100 µM | > 100 µM | > 100 µM | – | – | – | – | – | – | – | – | – |
| CN1C/C(=C\c2ccc(C(=O)O)cc2)C(=O)/C(=C/c2ccc(C(=O)O)cc2)C1 | > 100 µM | > 100 µM | > 100 µM | > 100 µM | – | > 100 µM | > 100 µM | > 100 µM | > 100 µM | – | – | – | – | – | – | – | – | – |
| C#C[C@@H](CCCC)OC(=O)N[C@H](C)c1ccccc1 | – | 52.6 µM | 82 µM | – | > 100 µM | 97.5 µM | > 100 µM | 65.4 µM | – | – | – | – | – | – | – | – | – | – |
| COC(=O)[C@@H](C)C[C@H](Cc1ccccc1)NC(=O)c1csc([C@@H](C[C@H](C(C)C)N(C)C(=O)[C@@H](NC(=O)[C@H]2CCCCN2C)C(C(F)(F)F)C(F)(F)F)OC(C)=O)n1 | > 16.7 µM | > 16.7 µM | > 16.7 µM | > 16.7 µM | > 16.7 µM | – | > 16.7 µM | > 16.7 µM | > 16.7 µM | 0.0829 µM | 0.0645 µM | 0.0666 µM | 3.94 µM | 0.108 µM | 0.0658 µM | 0.0655 µM | 0.224 µM | – |
| CC(=O)[O][Hg][c]1s[c]([Hg][O]C(C)=O)[c]([Hg][O]C(C)=O)[c]1[Hg][O]C(C)=O | 35.1 µM | 23.4 µM | > 100 µM | – | 16.3 µM | 25.4 µM | – | – | 30.4 µM | 20.1 µM | 4.51 µM | 3.61 µM | > 100 µM | 5.92 µM | 4.27 µM | – | 4.61 µM | 4.91 µM |
| COC(=N)CCCl | – | > 100 µM | > 100 µM | > 100 µM | > 100 µM | > 100 µM | > 100 µM | > 100 µM | > 100 µM | – | – | – | – | – | – | – | – | – |
| N#C/C(=C1\OC(N)=C(c2ccc(Cl)cc2)C1=O)c1ccc(Cl)cc1 | 31.1 µM | 38.3 µM | – | > 100 µM | 39.6 µM | 32.4 µM | 29.1 µM | 29.8 µM | – | – | – | – | – | – | – | – | – | – |
| CC1=CC(=O)N2C(OC[C@@H]2c2ccccc2)O1 (stereo partly specified) | – | > 100 µM | > 100 µM | > 100 µM | > 100 µM | > 100 µM | > 100 µM | > 100 µM | > 100 µM | – | – | – | – | – | – | – | – | – |
| N#CC(C#N)C(c1ccccc1)c1ccccc1 | > 100 µM | > 100 µM | > 100 µM | > 100 µM | > 100 µM | – | > 100 µM | > 100 µM | > 100 µM | – | – | – | – | – | – | – | – | – |
| O/N=C1\C(=C\c2ccc3c(c2)OCCO3)CCCC1C(NO)c1ccc2c(c1)OCCO2 (stereo unspecified) | 60 µM | > 100 µM | – | 32 µM | > 100 µM | 72.6 µM | 42.2 µM | 68.7 µM | 68.6 µM | – | – | – | – | – | – | – | – | – |
| CC/C(C)=C1\CCC(CN(C)C)C1=O (stereo unspecified) | 37.5 µM | 36.8 µM | > 100 µM | 43.2 µM | > 100 µM | 30.1 µM | – | 35.4 µM | 29.2 µM | – | – | – | – | – | – | – | – | – |
| CCCCCC/C(CC(=O)CCC(=O)NCCc1ccccc1)=N\Nc1ccc([N+](=O)[O-])cc1[N+](=O)[O-] | > 100 µM | > 100 µM | > 100 µM | > 100 µM | > 100 µM | – | > 100 µM | > 100 µM | > 100 µM | – | – | – | – | – | – | – | – | – |
| N#CNC1=NCCC(=O)N1CCc1c[nH]c2ccccc12 | – | > 100 µM | > 100 µM | > 100 µM | > 100 µM | > 100 µM | – | > 100 µM | > 100 µM | – | – | – | – | – | – | – | – | – |
